In patent US20260201062A1, “LIGAND-DRUG CONJUGATE OF EXATECAN ANALOGUE, PREPARATION METHOD THEREFOR AND APPLICATION THEREOF” (JIANGSU HENGRUI MEDICINE CO., LTD., priority 2018, published 2026):
Where two headings read alike, the source gives them in different places.

Experiments:
[1] = test system: SK-BR-3 tumor cells (human breast cancer cells); assay: In vitro inhibition of compound of formula (D) on tumor cell proliferation (CTG), SK-BR-3; type: cell-based; details: read-out: IC50 of in vitro inhibition on the proliferation of SK-BR-3 cells
Protocol: (§1) The purpose of this test is to test the in vitro inhibition effect of the drug compound of formula (D) of the present invention on the proliferation of U87MG cells (Chinese Academy of Sciences cell bank, Catalog #TCHu138) and SK-BR-3 tumor cells (human breast cancer cells, ATCC, article number HTB-30). The cells were treated with different concentrations of the compound in vitro. After 6 days of cultivation, the cell proliferation was determined by CTG reagent (CellTiter-Glo® Luminescent Cell Viability Assay, Promega, article number: G7573), and the in vitro activity of the compound was evaluated according to the IC50 value.
The test method for in vitro proliferation inhibition test of the present compounds on tumor cells is described below by taking in vitro proliferation inhibition test method onU87MG cells as an example. This method is also applicable to, but not limited to, the in vitro proliferation inhibition tests on other tumor cells. • 1. Cell cultivation: U87MG cells and SK-BR-3 cells were cultured in EMEM medium containing 10% FBS (GE, article number SH30024.01) and McCoy's 5A medium containing 10% FBS (Gibco, article number 16600-108), respectively. • 2. Cell preparation: U87MG cells and SK-BR-3 cells in logarithmic growth phase were washed with PBS (phosphate buffer, Shanghai Basal Media Technologies Co., Ltd.) once, and then added with 2-3 ml of trypsin (0.25% Trypsin-EDTA (1×), Gibico, Life Technologies) to digest for 2-3 min. 10-15 ml of cell culture medium was added after the cells were completely digested. The digested cells were eluted, and centrifuged at 1000 rpm for 5 min. The supernatant was discarded, and 10-20 ml of cell culture medium was added to resuspend the cells to obtain a single-cell suspension. • 3. Cell plating: the U87MG and SK-BR-3 single-cell suspensions were mixed well, and the cell densities were adjusted to 2.75×10^3 cells/ml and 8.25×10^3 cells/ml with the cell culture medium respectively. The density-adjusted cell suspension was mixed well, and added to a 96-well cell culture plate at 180 μl/well. 200 μl of culture medium was added to the peripheral wells of the 96-well plate. The plate was incubated in an incubator for 24 hours (37° C., 5% CO2). • 4. Compound formulation: the compound was dissolved with DMSO (dimethylsulfoxide, Shanghai Titan Technology Co., Ltd.) to obtain a stock solution with an initial concentration of 10 mM.
The initial concentration of the small molecule compound was 500 nM, and the formulating method is as follows.
30 μl of different test samples were respectively added into the first column of the 96-well U-shaped bottom formulating plate with a sample concentration of 100 µM. 20 µl of DMSO was added to each well from the second column to the 11th column. […]

U87MG cells = assay: In vitro inhibition of compound of formula (D) on tumor cell proliferation (CTG), U87MG; type: cell-based; details: Homo sapiens, U-87 MG, 144 h, read-out: IC50 of in vitro inhibition on the proliferation of U87 cells
Protocol: as §1
The test method for in vitro proliferation inhibition test of the present compounds on tumor cells is described below by taking in vitro proliferation inhibition test method onU87MG cells as an example. This method is also applicable to, but not limited to, the in vitro proliferation inhibition tests on other tumor cells. • 1. Cell cultivation: U87MG cells and SK-BR-3 cells were cultured in EMEM medium containing 10% FBS (GE, article number SH30024.01) and McCoy's 5A medium containing 10% FBS (Gibco, article number 16600-108), respectively. • 2. […]

[2] = test system: trastuzumab (Herceptin) resistant human breast cancer cell strain JIMT-1 transplanted tumor; assay: Efficacy evaluation in JIMT-1 tumor-bearing mice; type: in vivo, Nunu nude mice; details: 10 mg/kg, intraperitoneal injection 2 times, Day 34
Source text: Formulation method: the drugs were all diluted and formulated with PBS. • 3. Test animals • Nunu nude mice, purchased from Beijing Vital River Laboratory Animal Technology Co., Ltd.
JIMT-1 cells (Nanjing Cobioer Biosciences Co., Ltd.) (5×10^6 cells/mouse, having 50% matrigel) were inoculated subcutaneously in the right rib of mouse. After the tumor grew for 8 days and reached 203.09±11.94 mm^3, the animals were randomly grouped into 6 groups with 8 animals per group (d1).
The drugs were administered by intraperitoneal injection for a total of 2 times. The tumor volume and body weight were measured twice a week, and the data were recorded.
Excel 2003 statistical software was used for data statistics: mean value was calculated as avg; SD value was calculated as STDEV; SEM value was calculated as STDEV/SQRT; P value between different groups was calculated as TTEST.
[formula] [formula] [formula] • wherein V0 and VT represent the tumor volume at the beginning of the test and at the end of the test, respectively. CRTV and TRTV represent the relative tumor volume of the blank control group (Vehicle, PBS) and the test group at the end of the test, respectively.

[3] = 144 h, SK-BR-3, 6 days of cultivation, CTG reagent

Compound	IC50 ([1]; SK-BR-3, 144 h)	IC50 (U87MG cells)	IC50 [1, 3]	also measured
CC[C@@]1(O)C(=O)OCc2c1cc1n(c2=O)Cc2c-1nc1cc(F)c(C)c3c1c2[C@@H](NC(=O)C1(O)CCCC1)CC3 [Compound 4, N-((1S,9S)-9-Ethyl-5-fluoro-9-hydroxy-4-methyl-10,13-dioxo-2,3,9,10,13,15-hexahydro-1H,12H-benzo[de]pyrano[3′,4′:6,7]indolizino[1,2-b]quinolin-1-yl)-1-hydroxycyclopentane-1-carboxamide]	1.9 nM	–	–	–
CC[C@@]1(O)C(=O)OCc2c1cc1n(c2=O)Cc2c-1nc1cc(F)c(C)c3c1c2[C@@H](NC(=O)C1(O)CC1)CC3 [Compound 1, N-((1S,9S)-9-Ethyl-5-fluoro-9-hydroxy-4-methyl-10,13-dioxo-2,3,9,10,13,15-hexahydro-1H,12H-benzo[de]pyrano[3′,4′:6,7]indolizino[1,2-b]quinolin-1-yl)-1-hydroxycyclopropane-1-carboxamide]	0.12 nM	0.23 nM	–	–
T-DM1	–	–	–	tumor inhibition rate [2]: no inhibition effect on tumor
CC[C@@]1(O)C(=O)OCc2c1cc1n(c2=O)Cc2c-1nc1cc(F)c(C)c3c1c2[C@@H](NC(=O)C1(O)CCC1)CC3 [Compound 7, N-((1S,9S)-9-Ethyl-5-fluoro-9-hydroxy-4-methyl-10,13-dioxo-2,3,9,10,13,15-hexahydro-1H,12H-benzo[de]pyrano[3′,4′:6,7]indolizino[1,2-b]quinolin-1-yl)-1-hydroxycyclobutane-1-carboxamide]	–	–	1 nM	–
CC[C@@]1(O)C(=O)OCc2c1cc1n(c2=O)Cc2c-1nc1cc(F)c(C)c3c1c2[C@@H](NC(=O)C1(CO)CC1)CC3 [Compound 5, N-((1S,9S)-9-Ethyl-5-fluoro-9-hydroxy-4-methyl-10,13-dioxo-2,3,9,10,13,15-hexahydro-1H,12H-benzo[de]pyrano[3′,4′:6,7]indolizino[1,2-b]quinolin-1-yl)-1-(hydroxymethyl) cyclopropane-1-carboxamide]	–	4.81 nM	–	–
CC[C@@]1(O)C(=O)OCc2c1cc1n(c2=O)Cc2c-1nc1cc(F)c(C)c3c1c2[C@@H](NC(=O)C1(CO)CCC1)CC3 [Compound 6, N-((1S,9S)-9-Ethyl-5-fluoro-9-hydroxy-4-methyl-10,13-dioxo-2,3,9,10,13,15-hexahydro-1H,12H-benzo[de]pyrano[3′,4′:6,7]indolizino[1,2-b]quinolin-1-yl)-1-(hydroxymethyl) cyclobutane-1-carboxamide]	–	–	1 nM	–
